The nature of series [1]: Pharmacokinetic analysis in mouse plasma and brain after i.p. injection. As to conditions: for Kp: brain/plasma; for Kp / Cmax / AUC / Tmax / half-life: 10 mg/kg, mouse; for Kp / Cmax: i.p. In kind it is in vivo. How it is done:
Wildtype mice (postnatal day 21-28, P21-28) received an i.p. injection of 10 mg/kg CBGA methyl ester or olivetolic acid. At selected time points (15–120 min) mice were anesthetized with isoflurane, whole blood was collected by cardiac puncture and brains were harvested. The plasma was isolated by centrifugation and samples were stored at −80°C until assayed. Concentrations in the plasma and brain samples at each time point were averaged, and pharmacokinetic parameters were calculated by noncompartmental analysis as previously described (Hawkins et al. [2017]).
(§1) The plasma and brain samples were prepared for LC-MS/MS analysis as previously described (Anderson et al. [2019b], [2020]). Briefly, acetonitrile was used to precipitate proteins and extract CBGA methyl ester and olivetolic acid from the biological matrices. The brain samples were additionally filtered through Amicon Ultracel 3K (Merck-Millipore; Burlington, USA) filtration devices. The plasma and brain samples underwent supported-liquid extraction with methyl tert-butyl ether using Biotage Isolute SLE+ columns (Uppsala, SWE) and were then evaporated to dryness with N2. Residues were reconstituted in actetonitrile and 0.1% formic acid in water (1:1, v/v) for analysis using a Shimadzu Nexera ultra-HPLC coupled to a Shimadzu 8030 triple quadrupole mass spectrometer (Shimadzu Corp.; Kyoto, JPN). The mass spectrometer was operated in positive electrospray ionization mode for CBGA methyl ester and negative electrospray ionization mode for olivetolic acid with multiple reaction monitoring and the following mass transition pairs (m/z): 375.20 > 343.25, 375.20 > 219.10 and 375.20 > 251.15 (CBGA-methylester) and 223.25 > 179.25 (olivetolic acid). Quantification of analytes in the plasma and brain samples was achieved by comparing samples to standards prepared with known amounts of compound.

Series [2] deals with hyperthermia-induced seizures in Scn1a^+/- mice. Kind of series: Hyperthermia-induced seizures in Scn1a+/- mouse model of Dravet syndrome. The class given is in vivo. How it is done: (§2) Hyperthermia-induced seizure experiments were conducted on male and female Scn1a^+/- mice at P14-16 as previously described (Hawkins et al. [2017]). No significant sex differences were observed so males and females were combined across groups. Briefly, for CBGA methyl ester experimental animals a RET-3 rectal temperature probe was inserted 30 min after i.p. injections of vehicle or CBGA methyl ester. Mice acclimated to the probe for 5 min before hyperthermia protocol began. Olivetolic acid experimental animals acclimated to the rectal temperature probe for 5 min then received an i.p. injection of vehicle or olivetolic acid immediately before the hyperthermia protocol was initiated. Mouse core body temperature was elevated 0.5°C every 2 min until the onset of first clonic convulsion with loss of posture or until 42.5°C was reached. The dose range (10, 30, or 100 mg/kg) was chosen to provide a point of direct comparison to CBGA, which is anticonvulsant at 30 and 100 mg/kg. Seizure threshold temperatures were compared in GraphPad Prism 8.2 (LaJolla, USA) using Mantel-Cox logrank test and p < 0.05 was considered statistically significant. Following the hyperthermia-induced seizure protocol, the plasma samples were isolated as described for the pharmacokinetic analysis from a cohort of experimental mice.

Series [3] can be described thus: Plasma concentrations in experimental Scn1a+/- mice after hyperthermia protocol. In kind it is in vivo, mouse. The method, then:
as §1, §2

[4] abbreviates: intraperitoneal, read-out: brain penetration.
[5] abbreviates: ip, from AUC values, read-out: Brain-plasma ratio.
The mark [6] stands for this setting: ip, brain, converted from ng/mg brain assuming density of 1 g/mL, read-out: Cmax.

“Also recorded” adds a separate entry of the source. Read-outs that look alike come from different tables or passages of the source.

As usually defined, the AUC is the area under the concentration-time curve, a measure of exposure. A high value points to high exposure. As usually defined, the Tmax is the time at which the peak concentration occurs. As usually defined, the half-life is the time in which the quantity being followed falls by half. The low end stands for fast loss, the high end for slow loss. Take `CCCCCc1cc(O)c(C/C=C(\C)CCC=C(C)C)c(O)c1C(=O)OC` [CBGA methyl ester]: the Kp in series [1] (setting [4]) and in series [1] (setting [5]) was 0.13 each time. For the same molecule, the “improvement of brain-plasma ratio over CBGA” value in series [1] (compared with CBGA of Anderson et al. 2019b) is reported as “nearly a seven fold improvement”. In addition, the Cmax in series [1] (setting [6]) amounted to 0.21 ± 0.03 µg/mL; in series [1] (ip, plasma, read-out: Cmax), 1.3 ± 0.3 µg/mL. For the same molecule, the AUC in series [1] (ip, brain) is 0.367 µg·h/mL; in series [1] (ip, plasma), 2.85 µg·h/mL. Moreover, the time of peak concentration (Tmax) in series [1] (ip, brain) is 30 min; in series [1] (ip, plasma), 45 min. The half-life is 62 min in series [1] (brain, ip) and 81 min in series [1] (plasma, ip). Also, the “effect on hyperthermia-induced seizures” value in series [2] (any dose tested (10, 30, 100 mg/kg i.p.), Scn1a+/- mice P14-16) was “no effect; also recorded: ineffective”. Further, the Plasma concentration in series [3] (dose 10 mg/kg i.p.) is 0.837 ± 0.212 µg/mL; in series [3] (dose 30 mg/kg i.p.) it was 4.7 ± 0.6 µg/mL; in series [3] (dose 100 mg/kg i.p.), 6.2 ± 0.6 µg/mL.

On to `CCCCCc1cc(O)cc(O)c1C(=O)O` [Olivetolic acid], for which the Kp in series [1] (setting [4]) and in series [1] (setting [5]) was 0.01 each time. Also, the Cmax came to 0.45 ± 0.06 ng/mg brain in series [1] (brain); 0.45 ± 0.06 µg/mL in series [1] (setting [6]); 65 ± 4 µg/mL in series [1] (ip, plasma, read-out: Cmax). Further, the AUC in series [1] (ip, brain) is 0.217 µg·h/mL; in series [1] (ip, plasma), 18.4 µg·h/mL. Moreover, the Tmax was 15 min in series [1] (ip, brain) and 15 min in series [1] (ip, plasma). The half-life in series [1] (brain, ip) was < 15 min; in series [1] (plasma, ip), < 15 min. Besides, the “increase of GTCS temperature threshold” value in series [2] (100 mg/kg i.p., Scn1a+/- mice) was “approximately 0.4 °C”. Besides, the “anticonvulsant effect (GTCS temperature threshold)” value in series [2] (100 mg/kg i.p., Scn1a+/- mice P14-16) is reported as “modest but significant anticonvulsant effect; also recorded: significantly increased the temperature threshold for GTCS”. Further, the results for the Plasma concentration in series [3] (dose 10 mg/kg i.p.), in series [3] (dose 30 mg/kg i.p.) and in series [3] (dose 100 mg/kg i.p.) were 65 ± 5 µg/mL, 89 ± 12 µg/mL and 116 ± 27 µg/mL, respectively.

The values are drawn from publication PMC8725448 (Journal of Cannabis Research, 2022).
